# In patent US12226396B2, “Gluconic acid derivatives for use in the treatment and/or prevention of microbial infections” (GEDEA BIOTECH AB, priority 2017, dated 2025):
# Key:
# [1] = test system: Candida albicans; assay: Biofilm formation assay (crystal violet); assay type: cell-based; settings: for normalized biofilm (% of control): 0.06 wt % acid, unbuffered, biofilm measured after 24 h; for normalized biofilm (OD560) at pH 2.6: pH 2.6, 24 h treatment; for normalized biofilm (OD560) at pH 6.1: pH 6.1, 24 h treatment
# Protocol: (§1) Yeast strains (Table 1) were grown at 37° C. in complete medium YPD (0.5% yeast extract, 1% peptone, 2% glucose) or minimal medium consisting of YNB (yeast nitrogen base without amino acids and ammonium sulphate, FORMEDIUM™, CYN0505) supplemented with 0.5% ammonium sulphate, 0.2% glucose and 100 mM L-proline. If needed 2% agar was used to solidify media. The liquid minimal medium (YNB (yeast nitrogen base without amino acids and ammonium sulphate, FORMEDIUM™, CYN0505) supplemented with 0.5% ammonium sulphate, 0.2% glucose and 100 mM L-proline) was used for biofilm assay (biofilm medium).
# (§2) In the experiments on the impact of pH on biofilm the pH values (from 2.6 to 6.6) were obtained using either different potassium phosphate buffers at the final concentration 0.25 M, or by the addition of citric acid, lactic acid, and gluconic acid to the biofilm medium.
# (§3) Biofilm was measured in liquid culture as described [K. Scherz et al., G3 (Bethesda), 2014, 4, 1671-1680. I. Serrano-Fujarte et al. Biomed Res Int. 2015; 2015:783639] with some modifications. Prior the biofilm assay, yeast cultures were grown in liquid YPD medium for 24 hours until stationary phase (OD600 11-17)^2, cells were then pelleted by centrifugation (1699 g), washed with sterile water and cells were further inoculated into test biofilm medium (YNB (yeast nitrogen base without amino acids and ammonium sulphate) supplemented with 0.5% ammonium sulphate, 0.2% glucose and 100 mM L-proline pH7.0) at final concentration 0.2 OD600/ml and incubated in 96-well flat-bottom polystyrene microtiter plates (Sigma Aldrich, Corning® Costar® culture plates, CLS3596-50EA) for 72 hours at 37° C. thermostat. At defined time points crystal violet (HT901-8FOZ; Sigma Aldrich) was added to the media at the final concentration 0.05%, in addition total biomass was measured. After 24 hours of cells staining, plate wells were washed four times with 200 μl of water to remove planktonic cells, biofilms were then dried and dissolved in 200 μl of 96% ethanol. Total biomass and crystal violet biofilm staining measurements were performed at OD560 with FLUOstar OPTIMA plate reader, BMG LABTECH. Crystal violet biofilm measurements were normalized to the total biomass (OD560Biofilm/OD560 total biomass).
# (§4) To compare the effects of different hydroxylated carboxylic acids at low concentrations, the biofilm formation was measured 24 h after addition of 0.06 wt % of glyceric acid, xylonic acid, citric acid, gluconic acid, and lactic acid, under unbuffered conditions.
# In order to further evaluate the effect of gluconic acid in preventing biofilm formation, the biofilm formation at different pH were determined (as described in Example 1) for gluconic acid, lactic acid and citric acid.
# [2] = Resulting pH of biofilm medium after addition of hydroxylated carboxylic acid; assay type: physicochemical; settings: 0.06% acid in biofilm medium, unbuffered
# Protocol: as §4
# [3] = test system: Candida glabrata; assay: Biofilm formation assay (crystal violet); assay type: cell-based; settings: for normalized biofilm (OD560) at pH 2.6: pH 2.6, 72 h treatment; for normalized biofilm (OD560) at pH 6.1: pH 6.1, 72 h treatment
# Protocol: as §1, §2, §3
# Candida glabrata is much more complicated to treat, compared to Candida albicans. However, a clear effect is obtained by longer treatment, i.e. 72 h with gluconic acid (Table 4).
# [4] = test system: Escherichia coli K12; assay: E. coli biofilm study in M9 medium (crystal violet); assay type: cell-based; settings: for effect on growth (biomass): M9 medium, 24-48 hours; for biofilm lowered: pH 6.6
# Protocol: The bacterial strain Escherichia coli K12 was used for the biofilm study. This strain was maintained on LB medium at 37° C. The biofilm was studied in synthetic medium M9 (×1 M9 minimal salts (Sigma M6030), 2 mM MgSO4, 0.1 mM CaCl2, and 0.2% glucose), which contained either phosphate buffer, citric acid, lactic acid, gluconic acid or glucono-O-lactone to obtain media with different pH (2.6-6.6).
# The overnight culture of E. coli K12 (OD600˜5.0) was washed with sterile water and inoculated to the final concentration 0.2 OD/ml of M9 medium with different pH of different compounds. The biofilm development was studied in 96-well flat-bottom polystyrene microtiter plates (Sigma Aldrich, Corning® Costar® culture plates, CLS3596-50EA). The biofilm was stained with crystal violet.
SMILES,resulting pH [2],normalized biofilm (% of control) [1],normalized biofilm (OD560) at pH 2.6 [1],normalized biofilm (OD560) at pH 6.1 [1],normalized biofilm (OD560) at pH 2.6 [3],normalized biofilm (OD560) at pH 6.1 [3],effect on growth (biomass) [4],"less biofilm formation on replacing lactic acid by gluconic acid ([1]; 0.06 wt %, 24 h, 6% vs 13% of control)",biofilm lower compared to the phosphate medium ([4]; pH 2.6),biofilm lower compared to the phosphate medium ([4]; pH 3.0),biofilm lowered [4]
O=C(O)CC(O)(CC(=O)O)C(=O)O [citric acid],4.6,14 % of control,0.34 OD560,4.6 OD560,1.0 OD560,2.9 OD560,inhibiting effect on the growth,–,–,–,–
O=C(O)[C@H](O)[C@@H](O)[C@H](O)[C@H](O)CO [gluconic acid],6.5,6 % of control,–,0.17 OD560,0.07 OD560,1.6 OD560,inhibiting effect on the growth,> 50%,38 fold,15 fold,~2 fold

# Now from value to molecule, other results behind:
resulting pH [2],SMILES,normalized biofilm (% of control) [1],normalized biofilm (OD560) at pH 2.6 [1],normalized biofilm (OD560) at pH 6.1 [1],normalized biofilm (OD560) at pH 2.6 [3],normalized biofilm (OD560) at pH 6.1 [3],effect on growth (biomass) [4],"less biofilm formation on replacing lactic acid by gluconic acid ([1]; 0.06 wt %, 24 h, 6% vs 13% of control)",biofilm lower compared to the phosphate medium ([4]; pH 2.6),biofilm lower compared to the phosphate medium ([4]; pH 3.0),biofilm lowered [4]
7.0,O=C(O)[C@H](O)[C@@H](O)[C@H](O)CO [xylonic acid],31 % of control,–,–,–,–,–,–,–,–,–
7.0,O=C(O)C(O)CO (centres unmarked) [glyceric acid],40 % of control,–,–,–,–,–,–,–,–,–
4.9,CC(O)C(=O)O (centres unmarked) [lactic acid],13 % of control,1.6 OD560,3.1 OD560,0.9 OD560,2.8 OD560,inhibiting effect on the growth,–,–,–,~2 fold
